Earlier results in patent US6676966B1, “Extended release metformin hydrochloride formulations” (Intellipharmaceutics Corp., priority 2000, dated 2004).
Counter-ions that a name gives are not always drawn.

Details: single 850 mg immediate release tablet with food vs same tablet without food

For `CN(C)C(=N)N=C(N)N` [metformin, Metformin hydrochloride], which “lower AUC in plasma with food” value is on record?
The value was 25%.

And the “lower peak concentration in plasma with food” value?
Its value is about 40%.

And the “prolongation of time to peak plasma concentration with food” value?
The value was 35 min.
